# From PMC12475274, “Harnessing indole scaffolds to identify small-molecule IRE1α inhibitors modulating XBP1 mRNA splicing” (Nature Communications, 2025)
# Several values for one entry are separate records, joined by “and”; a condition that tells them apart may be missing. Identical values can stand only once.
# Assays:
# [1] = system: XBP1s protein in A549 cells; experiment: Western blot of XBP1s protein level, A549; format: cell-based, human; details: 2 h compound, then 1 μg/mL tunicamycin 4 h
# Experimental: A549 cells and MDA-MB-231 Cells were harvested and seeded into 6-well plates with a density of 8 × 10^5 cells per well and cultured overnight. […]. Protein concentrations were measured using a BCA protein assay kit (Thermo Scientific, 23227) and all samples were diluted to the same protein concentration. Each sample with 40 μg of total protein was loaded onto a 4–15% MP stain-free gel (Bio-Rad, 4568085) and separated in tris-glycine-SDS running buffer. The proteins were transferred onto a 0.45 μm PVDF membrane (Bio-Rad, 1704274) using the Trans-Blot Turbo Transfer System with the preprogrammed standard SD protocol (up to 1.0 A; 25 V; 30 min). Membranes were blocked with 5% skim milk (Roth, T145.2) in PBST buffer, then incubated with primary antibody IRE1α (Cell Signaling Technology, #3294 s, 1:1000), XBP1s (Cell Signaling Technology, #12782 s, 1:1000) GAPDH (Proteintech, 10494-1-AP, 1:6000) overnight at 4 °C with shaking. After incubation, membranes were washed with PBST and incubated with the Goat Anti-Rabbit (Proteintech, SA00001-2, 1:6000) antibody at room temperature for 1 h. After washing with PBST, the membranes were visualized using Amersham ECL Prime Western Blotting Detection Kit (Cytiva, RPN2232) and imaged with a ChemiDoc MP imaging system (Bio-Rad).
# IRE1α [2] = target: T1, IRE1α (Homo sapiens, UniProt O75460); experiment: Michaelis–Menten kinetic analysis with XBP1 RNA substrate; format: biochemical
# T1 construct: Human IRE1α kinase and RNase domain (residues 547–977) was subcloned into pLIB plasmid; His tag (with TEV cleavage site) (N, cleaved yes); made in house; host or cells: Sf9 insect cells, baculovirus (Bac-to-Bac)
# Experimental: I/s (fluorescence intensity/second), 7.98 FL. I/s, 2.33 FL. I/s and 0.9 FL. I/s, respectively.
# The dual-labeled RNA substrate with a FAM at 5’ and the BHQ-1 at 3’ containing the XBP1 sequence (5′FAM-[…]-3′BHQ1) was purchased from Integrated DNA Technologies (IDT). The FRET-based IRE1α RNase activity assay was carried out in reaction buffer containing 20 mM HEPES pH 7.5, 50 mM KOAc, 1 mM MgOAc2, 1 mM DTT, 0.05% v/v TritonX-100, at a total reaction volume of 20 μL in a 384-well black plate (4514, Corning). […] […] The indicated compound and IRE1α protein were incubated for 30 min at room temperature before the substrate was added to the reaction. The plate was then kinetically read over one hour at room temperature using a TECAN Spark plate reader. The measurement was carried out using the fluorescence top reading mode at the excitation wavelength of 485 nm and the emission wavelength of 535 nm with a 10 nm excitation and emission bandwidth. The linear part of the reaction curve was adopted and fitted with sample linear regression to obtain the slope, and the slope was adopted to reflect the reaction rate. The inhibition % was calculated by using the equation: inhibition% = 100 × (slope of DMSO control – slope of the sample)/(slope of DMSO control – slope of blank control), DMSO control: DMSO with protein and RNA substrate; Blank control: DMSO with RNA substrate. The IC50 values were calculated using the concentration-response model in GraphPad Prism 9.
# [3] = system: XBP1 mRNA splicing in A549 cells; experiment: RT-qPCR of ER stress-induced XBP1 mRNA splicing, A549; format: cell-based, human; details: for Relative XBP1s/Actin: Fig. 7a, 0.5μg/mL Tm, individual replicates
# Experimental: (§1) A549 cells, HCT 116 cells, and HT-29 cells were collected and seeded in 6-well plates at a density of 5 × 10^5 cells per well and cultured overnight to attach, then treated with compound or DMSO for 2 h, then 0.5 μg/mL final concentration of tunicamycin (Tm, MP Biomedi, 0215002805) were added to induce the ER stress for 2 h. After treatment, total RNA was purified using an RNeasy mini kit (Qiagen, 74106). 500 ng of total RNA was used for reverse transcription using the High-Capacity cDNA Reverse Transcription Kits (Thermo Fisher, 4368814). cDNA was diluted 1: 5 using RNase-free water, and 1 μL CDNA was used for each qPCR reaction. The qPCR was performed using PowerUp™ SYBR™ Green Master Mix (Thermo Fisher, A25742) with 10 µL reaction volume using Bio-Rad CFX96 Real-Time PCR Detection System following the standard cycling mode (primer Tm ≥ 60 °C) on the manufacturer’s protocol. Data was analyzed using the 2^- ΔΔCt method. The primers used are listed in Supplementary Table S3. The inhibition % was calculated by using the equation: inhibition% = 100× (normalized Tm control - normalized of the sample)/(normalized Tm control - normalized DMSO control). Tm control: Cells treated with tunicamycin; DMSO control: Cells treated with DMSO only.
# A549 cells = experiment: Cell viability assay (CCK-8), A549; format: cell-based, human; details: A549; for inhibition at 50 µM: Homo sapiens, read-out: antiproliferation, inhibition at highest tested concentration
# Experimental: (§2) Cells were collected and seeded into 96-well plates at a density of 2000–4000 cells per well and cultured overnight to allow cells to adhere. After adherence, cells were treated with the indicated compounds for 72 h. Then 20 μL CCK-8 solution (Vazyme, A311) was added into each well and incubated at 37 °C for 2–4 h. Absorbance was detected at a wavelength of 450 nm using a TECAN plate reader. Cell viability was calculated with the equation: Cell viability (%) = 100(Absorbance of treated cell - Absorbance of Blank control)/ (Absorbance of DMSO-treated cells - Absorbance of Blank control); Blank control: medium and CCK-8 solution, no cells.
# MDA-MB-468 cells = experiment: Cell viability assay (CCK-8), MDA-MB-468; format: cell-based, human; details: MDA-MB-468; for inhibition at 50 µM: Homo sapiens, read-out: antiproliferation, inhibition at highest tested concentration
# Experimental: as §2
# [4] = system: XBP1 mRNA splicing in HT-29 cells; experiment: RT-qPCR of ER stress-induced XBP1 mRNA splicing, HT-29; format: cell-based, human; details: HT-29 cells
# Experimental: as §1
# IRE1α [5] = details: Fig. 1b; read-out: IC50 of reported IRE1α inhibitor; cited from earlier work
# T1 sequence (O75460 547-977): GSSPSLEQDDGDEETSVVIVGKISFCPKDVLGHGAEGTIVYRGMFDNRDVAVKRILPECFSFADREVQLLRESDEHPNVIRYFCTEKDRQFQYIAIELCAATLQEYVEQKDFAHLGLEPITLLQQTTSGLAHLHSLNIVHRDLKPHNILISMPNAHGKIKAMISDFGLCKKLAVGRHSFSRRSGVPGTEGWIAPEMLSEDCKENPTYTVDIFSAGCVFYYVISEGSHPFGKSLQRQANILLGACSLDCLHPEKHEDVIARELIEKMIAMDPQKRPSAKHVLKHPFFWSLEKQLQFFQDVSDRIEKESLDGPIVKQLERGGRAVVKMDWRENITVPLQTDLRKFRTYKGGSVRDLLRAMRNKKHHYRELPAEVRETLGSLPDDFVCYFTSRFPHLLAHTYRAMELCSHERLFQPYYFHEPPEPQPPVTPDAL
compound,measurement,setting,value
"CCOC(=O)Nc1cccc2c(Oc3ncccc3-c3ccnc(N[C@H]4CCCNC4)n3)c(C)ccc12 [Compound G1749, reference compound]",effect on ER stress-induced XBP1s protein,[1],partially inhibited
Cc1c(CCC(=O)O)c2cc(Br)ccc2n1C(=O)c1ccccc1 [IA107],inhibition mechanism towards the XBP1 mRNA substrate,IRE1α [2],non-competitive
same,Vmax,IRE1α [2]; 0.01 μM IA107,7.98 FL. I/s
same,Vmax,IRE1α [2]; 0.1 μM IA107,2.33 FL. I/s
same,Vmax,IRE1α [2]; 1 μM IA107,0.9 FL. I/s
same,IRE1a Velocity,"IRE1α [2]; RNA 5000 nM, IA107 0.01 μM",7.329 FL.I/s and 6.249 FL.I/s
same,IRE1a Velocity,"IRE1α [2]; RNA 5000 nM, IA107 0.1 μM",1.807 FL.I/s and 2.323 FL.I/s
same,IRE1a Velocity,"IRE1α [2]; RNA 5000 nM, IA107 1 μM",0.681 FL.I/s and 0.661 FL.I/s
same,IRE1a Velocity,"IRE1α [2]; RNA 10000 nM, IA107 0.01 μM",7.224 FL.I/s and 6.354 FL.I/s
same,IRE1a Velocity,"IRE1α [2]; RNA 10000 nM, IA107 0.1 μM",1.848 FL.I/s and 1.988 FL.I/s
same,IRE1a Velocity,"IRE1α [2]; RNA 10000 nM, IA107 1 μM",0.902 FL.I/s and 0.839 FL.I/s
same,inhibition of ER stress-induced XBP1 mRNA splicing,"[3]; A549 cells, 2 h pre-treatment, 2 h tunicamycin",concentration-dependently inhibited
same,Relative XBP1s/Actin,[3]; 5 μM,3.514 and 3.6054 and 3.452 and 3.1438
same,Relative XBP1s/Actin,[3]; 10 μM,3.066 and 2.696 and 2.897 and 2.792
same,Relative XBP1s/Actin,[3]; 25 μM,2.48 and 2.329 and 2.338 and 2.263
same,Relative XBP1s/Actin,[3]; 50 μM,1.745 and 1.521 and 1.514 and 1.455
same,cytotoxicity,A549 cells,did not show cytotoxicity
same,inhibition at 50 µM,A549 cells,< 30%
same,inhibition at 50 µM,MDA-MB-468 cells,< 30%
same,cytotoxicity,MDA-MB-468 cells,did not show cytotoxicity
CCOC(=O)CCc1c(C)n(C(=O)c2ccccc2)c2ccc(Br)cc12 [IAPD1],IC50,"[3]; Homo sapiens, A549 cells, tunicamycin, read-out: cellular IC50, ER stress-induced XBP1 mRNA splicing",180 nM
same,improvement of the cellular activity in inhibiting XBP1 mRNA splicing,[3]; prodrug versus IA107,50 fold
same,inhibition of ER stress-induced XBP1 mRNA splicing,[4],inhibited
same,IC50,[4]; Homo sapiens,160 nM
same,effect on ER stress-induced XBP1s protein,[1],inhibited the XPB1s protein level
same,cytotoxicity,A549 cells,did not show cytotoxicity
same,inhibition at 50 µM,A549 cells,< 30%
same,inhibition at 50 µM,MDA-MB-468 cells,< 30%
same,cytotoxicity,MDA-MB-468 cells,did not show cytotoxicity
Cc1ccc2c(NS(=O)(=O)c3ccccc3Cl)cccc2c1Oc1ncccc1-c1ccnc(N[C@H]2CCCNC2)n1 [KIRA8],IC50,IRE1α [5],6 nM
